Tests used:
[1] = molecular target: T1, human 20S proteasome (h20S core particle); experiment: fluorogenic AMC peptide cleavage by purified h20S (activation; Ch-L EC50 […], T-L EC50 […]); format: biochemical
T1 construct: gene PSMB5

[2] = test system: T1, human 20S proteasome (h20S core particle); experiment: fluorogenic AMC peptide cleavage by h20S at […] (activation similar to suxibuzone); format: biochemical

EC50 [1] [µM]	Structure (SMILES)	fluorogenic AMC peptide cleavage by h20S at 5 and 10 uM (activation similar to s) [2]
4.4 ± 0.4	CCCCC1(COC(=O)CCC(=O)O)C(=O)N(c2ccccc2)N(c2ccccc2)C1=O [SB, suxibuzone]	
	CCCCC1(COC(=O)CCC(=O)NCCO)C(=O)N(c2ccccc2)N(c2ccccc2)C1=O [SB-ETA]	both test compounds had activity similar to suxibuzone, with no statistically significant difference
